Structures can show the parent of a compound that is named as a salt. Where two headings read alike, the source gives them in different places.
Columns and labels:
[1] = target: T1, preformed human β-2 microglobulin fibrils (Homo sapiens, UniProt P61769); experiment: Thioflavin T fluorescence high-throughput screen (slope assay score) for disruption of preformed fibrils; format: biochemical; conditions: for Slope Assay Score: slope of relative ThT fluorescence versus time, more negative = stronger disruption
Description: As used herein, “slope assay score” means the slope of the relative fluorescence of thioflavin T versus time curve for a given compound in a thioflavin T fluorescence assay. A negative slope signifies a decrease in thioflavin T fluorescence over time.
The human β-2 microglobulin fibrils were prepared in vitro at 0.1 mg/mL protein in 25 mM phosphate, pH 2, 0.2 M NaCl without agitation for 1 week at 37° C., in the same manner as Ivanova et al. See Ivanova et al. (Proc Natl Acad Sci U.S.A. 2004 Jul. 20; 101(29):10584-9).
In our experiments, disruption of the fibrillar structure of preformed β-2 microglobulin fibrils was monitored by fluorescence. The dye used, thioflavin T, serves as a probe for the presence or absence of amyloid fibrils. Thioflavin T binds specifically to human β-2 microglobulin fibrils, causing a red shift in the fluorescence excitation spectra of the dye to produce a peak in the fluorescence emission spectrum at 482 nm when the excitation wavelength is set at 444 nm. […] Because aliquotting of fibrils has an inherent variability, we aimed for a high signal/noise ratio of ˜10.
In the fluorescence assay used here, preformed human β-2 microglobulin fibrils were mixed with a solution of 5 μM ThT in 50 mM glycine, pH 8.6 in a 3:14 ratio (final concentrations: 4.1 μM ThT, 41.2 mM glycine, 0.018 mg/mL β-2 microglobulin, 35 mM NaCl and 4.4 mM phosphate). Fluorescence was measured immediately after mixing (excitation wavelength set at 444 nm, emission wavelengths at 482, 490, and 502 nm) with a Molecular Devices FlexStation II.
In our experiments, we screened 5200 compounds to determine whether a compound could disrupt preformed human β-2 microglobulin fibrils. Preformed β-2 microglobulin fibrils and ThT were mixed in the ratios described above in Example 2 and divided among seventeen 384-well glass-bottom plates (Costar #6569) using 40 μL/well. Each of the sixteen commercial plates contained four columns of control wells: columns 1, 2, and 23 contained preformed fibrils+dimethylsulfoxide (herein, DMSO), but no compound; column 24 contained nonfibrillar β2M+DMSO (no compound). The final concentrations of compound and DMSO in the other wells were 10 μM and 1%, respectively. Compounds were obtained from the following chemical libraries: the MicroSource Discovery Systems, Inc. Spectrum Collection library (J Virology 77: 10288 (2003); Ann Rev Med 56: 321 (2005)), the first four plates from the Prestwick Chemical Inc. library, two BIOMOL plates (phosphatase/kinase inhibitor library and bioactive lipid library), and the first five plates from the ChemBridge Corporation DIVERSet.
Plate 17 was prepared in-house and set up slightly differently than the commercial plates. Column 24 contains nonfibrillar B2M as in the other plates. However, only the first two rows contain added compounds, and the remaining rows contain control samples (fibrils mixed with thioflavin T, no compound). The chemicals used to prepare this supplemental plate were purchased from SIGMA. For each compound, a 1 mM solution in OmniSolv DMSO was prepared and filtered with Millex-FG 0.2 micron filters. The supplementary plate contained compounds at 1 or 10 mM in 100% DMSO, such that the final screening concentration is 10 or 100 μM compound in I% DMSO.
All plates were read manually on a Molecular Devices FlexStation II using the bottom-read function. For each of the wells, an initial fluorescence intensity measurement was taken as a baseline.

[2] = target: T1, preformed human β-2 microglobulin fibrils; experiment: Dose-response testing by thioflavin T fluorescence; format: biochemical; conditions: for Dose-Response (conc. at which slope is better than control): ThT/β2M fibril fluorescence, tested 100 nM to 10 mM; for concentration at which preformed human B2M fibrils are disrupted: in the range of
Description: Twelve compounds were selected for testing their dose-response effects. Dose-response curves were derived as follows. Preformed β-2 microglobulin fibrils were mixed with ThT in the ratios described above and divided into portions of 40 μL per well across 8 wells. The final concentrations were the same as used in the high-throughput screen: 4.1 μM ThT, 41.2 mM glycine, 0.018 mg/mL B2M, 35 mM NaCl, 4.4 mM phosphate. The first and last wells of each row were controls (B2M fibrils+ThT+solvent (water or DMSO)). To wells 2-7 of a given row, test compound was added to the β2M fibril/ThT mix such that the following final concentrations in the well were reached: 10 mM, 1 mM, 100 μM, 10 μM, 1 μM, and 100 nM. Each row was set up in duplicate. The wells were incubated for 99 hours and data collected at 2.5 hour intervals. Compound 22 was tested using both water and DMSO as solvent.
It is visually apparent that concentrations down to 10 μM of both compound 22 and L18 affect the B2M/Tht fluorescence.

[3] = tested on: preformed β-amyloid fibrils; conditions: Bush 2002; cited from earlier work
[4] = tested on: β-amyloid fibrils; conditions: Bush study; cited from earlier work
[5] = cited from earlier work
[6] = Solubility in water
[7] = target: T1, preformed human β-2 microglobulin fibrils; experiment: Electron microscopy as a secondary screen of fibril disruption; format: biochemical; conditions: for state of fibrils by electron microscopy at 10 μM compound / state of fibrils by electron microscopy at 1 mM compound / state of fibrils by electron microscopy at 100 μM compound: two-week incubation; for effect on fibrils by electron microscopy: at the concentrations tested
Description: Electron microscopy was used to confirm the effects of, among others, compounds 22 and L18 on the fibrils. Compounds 22 and L18 were mixed with drug and solvent or solvent alone and were separately incubated with preformed human β-2 microglobulin fibrils for two weeks. Compound 22 was tested at three concentrations (1 mM, 100 μM, and 10 μM). Aliquots were taken immediately after mixing, at day 2, at day 5, day 7, and day 14. Samples were fixed to grids (made hydrophilic by glow-discharge) upon taking the aliquots, washed with distilled water, and stained with 1% uranyl acetate. Grids were examined in a Hitachi H-7000 transmission electron microscope operating at 75 kV. Images were collected on Kodak electron microscope film 4489.

[8] = orally at doses at least twice this high (Ullmann, Haller et al. 2004); cited from earlier work
[9] = Gordon M et al 2006; cited from earlier work

Compound	effective in the fluorescence assay at disrupting β-2 microglobulin fibers [1]	dose-dependent effect on thioflavin T/β-2 microglobulin fibril fluorescence (words) [2]	Slope Assay Score [1]	concentration at which the compound affects thioflavin T/β-2M fibril fluorescence in a dose-dependent manner [2]	Dose-Response (conc. at which slope is better than control) [2]	effect on fibrils by electron microscopy [7]	further results
Oc1c(I)cc(Cl)c2cccnc12 [Clioquinol]	–	–	–	–	–	–	disruption of preformed β-amyloid fibrils [3]: disrupts; effectiveness in mice [4]: effective
NC(CO)C(=O)NNCc1ccc(O)c(O)c1O (centres unmarked) [Compound L18, benserazide hydrochloride]	–	–	−.066	10 µM	10 µM	had an effect on fibrils	plasma concentrations routinely achievable [9]: 6 µM; dose-dependent effect on thioflavin T/β-2 microglobulin fibril fluorescence (words) ([2]; hydrochloride): dose-dependent; concentration at which preformed human B2M fibrils are disrupted [2]: ~10 µM; dose-dependent effect on thioflavin T/β-2 microglobulin fibril fluorescence (words) ([2]; listed as benserazide, hydrochloride): dose-related effects
Cc1cc(O)c(C=O)c(O)c1C(=O)O [Haematommic Acid]	effective	dose-dependent effect	−.076	less than or equal to 10 μM	1 µM	visibly disrupted	state of fibrils by electron microscopy at 10 μM compound [7]: disrupted and unwound; state of fibrils by electron microscopy at 1 mM compound [7]: fibril dissolution was virtually complete
C=C1c2c(Cl)ccc(O)c2C(O)=C2C(=O)[C@]3(O)C(=O)/C(=C(\N)O)C(=O)[C@@H](N(C)C)[C@@H]3[C@@H](O)[C@H]12 [Meclocycline sulfosalicylate]	effective	dose-dependent effect	−.066	less than or equal to 10 μM	10 µM	visibly disrupted	state of fibrils by electron microscopy at 100 μM compound [7]: no intact fibrils present; state of fibrils by electron microscopy at 1 mM compound [7]: no visible fibrils
COc1cc(NC(C)CCCN)c2ncccc2c1 (centres unmarked) [Primaquine diphosphate]	effective	dose-dependent effect	−.058	less than or equal to 10 μM	10 µM	–	–
COC(=O)c1c(C)c2c(c(C)c1O)OC(=O)c1c(C)c(Cl)c(O)c(Cl)c1O2 [leoidin]	effective	–	–	–	–	–	–
CCn1cc(C(=O)O)c(=O)c2ccc(C)nc21 [nalidixic acid]	effective	–	–	–	–	–	–
NCCc1cc(O)c(O)cc1O [oxidopamine]	effective	–	–	–	–	–	–
OC[C@H]1O[C@@H](Oc2cc(O)cc(/C=C/c3ccc(O)cc3)c2)[C@H](O)[C@@H](O)[C@@H]1O [resveratrol-3-glucoside]	–	–	–	–	–	did not have an effect on fibrils	–

More lines, main results first:

effective in the fluorescence assay at disrupting β-2 microglobulin fibers [1]	dose-dependent effect on thioflavin T/β-2 microglobulin fibril fluorescence (words) [2]	Compound	Slope Assay Score [1]	concentration at which the compound affects thioflavin T/β-2M fibril fluorescence in a dose-dependent manner [2]	Dose-Response (conc. at which slope is better than control) [2]	effect on fibrils by electron microscopy [7]	further results
effective	dose-dependent effect	CN1CCc2cccc3c2[C@H]1Cc1ccc(O)c(O)c1-3 [Apomorphine hydrochloride hemihydrate]	−.061	less than or equal to 1 μM	1 to 10 µM	–	–
disrupts	dose-dependent	O=C(O[C@@H]1Cc2c(O)cc(O)cc2O[C@@H]1c1cc(O)c(O)c(O)c1)c1cc(O)c(O)c(O)c1 [Compound 22, Epigallocatechin gallate]	−.087	10 µM	10 µM	had an effect on fibrils	average plasma level ([5]; patients, single oral dose (Chow et al. 2001)): 1 µM; plasma levels reached ([5]; single oral dose (Nakagawa, Okuda and Miyazawa 1997)): 4.4 µM; human plasma levels reached ([5]; single oral dose (Unno et al. 1996)): 2 to 4 µM; solubility in water [6]: soluble; state of fibrils by electron microscopy at 10 μM compound [7]: significantly disrupted; state of fibrils by electron microscopy at 1 mM compound [7]: almost all of the fibrils; concentration at which preformed human B2M fibrils are disrupted [2]: ~10 µM; dose-dependent effect on thioflavin T/β-2 microglobulin fibril fluorescence (words) ([2]; listed as EGCG): dose-related effects; oral tolerability [8]: well-tolerated
effective	dose-dependent effect	COc1cc(C)c2c(c1C=O)Oc1c(c(C)c(O)c3c1C(O)OC3=O)OC2=O (centres unmarked) [Stictic Acid]	−.098	≤ 10 µM	10 µM	visibly disrupted	state of fibrils by electron microscopy at 100 μM compound [7]: mostly disrupted; state of fibrils by electron microscopy at 1 mM compound [7]: mostly disappeared
effective	–	Cc1c(C(=O)O)c(O)cc2c1C(=O)c1c(O)c([C@@H]3O[C@H](CO)[C@@H](O)[C@H](O)[C@H]3O)c(O)c(O)c1C2=O [carminic acid]	–	–	–	–	–
effective	–	Cc1cc(N)c2ccccc2[n+]1CCCCCCCCCC[n+]1c(C)cc(N)c2ccccc21 [dequalinium dichloride]	–	–	–	–	–
effective	–	Clc1ccc(COC(Cn2ccnc2)c2ccc(Cl)cc2Cl)cc1 (centres unmarked) [econazole nitrate]	–	–	–	–	–
effective	dose-dependent effect	Dobutamine hydrochloride	−.058	less than or equal to 10 μM	10 µM	–	–
